Reference: PMC3174345 (Arthritis and rheumatism, 2011)

Assays:
[1] = system: splenocytes of DR0401-IE mice; test: 3H-thymidine proliferation recall assay of splenocytes from immunized mice; type: cell-based, mouse
DR0401-IE mice = conditions: mouse, in vivo

cit-vim59-71: shorter citrullinated vimentin peptide, aa 59-71 (GVYATRSSAVRLR; citrullinated; UniProt P08670 59-71, looked up, fragment)
proliferative recall response at 13 weeks ([1]; immunized DR0401-IE mice harvested at week 13 (supplemental fig. 1)): strong proliferative recall response
immunodominant region in in vitro restimulation ([1]; mice immunized with cit-vim59-78, challenge with short peptides at 5 μg/ml, n=13): immunologically dominant region
mice developing signs of ankle swelling or polyarthritis (DR0401-IE mice): none
